According to ChEMBL document CHEMBL1201862, “PubChem BioAssay data set” (2004):
Calls of active or inactive are those of the source.

Assays:
[1] = molecular target: T1, Mannose-6-phosphate isomerase (Homo sapiens, UniProt P34949); assay: MPI enzyme activity inhibition – biochemical, fluorescence intensity, coupled assay, primary screen (AID 1209)
T1 sequence (P34949 whole entry): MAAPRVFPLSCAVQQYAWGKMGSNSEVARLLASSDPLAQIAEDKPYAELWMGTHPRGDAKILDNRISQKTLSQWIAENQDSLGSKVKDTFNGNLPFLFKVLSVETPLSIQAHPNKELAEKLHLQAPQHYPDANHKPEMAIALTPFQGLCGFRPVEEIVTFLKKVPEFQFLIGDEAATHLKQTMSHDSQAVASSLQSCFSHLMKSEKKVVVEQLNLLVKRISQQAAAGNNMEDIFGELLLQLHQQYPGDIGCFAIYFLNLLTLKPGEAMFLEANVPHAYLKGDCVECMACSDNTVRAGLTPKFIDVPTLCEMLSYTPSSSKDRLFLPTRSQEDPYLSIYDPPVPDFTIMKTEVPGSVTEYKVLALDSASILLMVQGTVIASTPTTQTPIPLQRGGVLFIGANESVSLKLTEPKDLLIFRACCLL

[2] = molecular target: T1, Mannose-6-phosphate isomerase; assay: MPI inhibition at elevated mannose 6-phosphate – biochemical, fluorescence intensity, high mannose 6-phosphate, primary screen (AID 1220)
Caspase-6 = molecular target: T2, Caspase-6 (Homo sapiens, UniProt P55212); assay: inhibition of CASP6 peptide cleavage – biochemical, VEID-R110 fluorescence, cherry-pick, dose response (AID 720632)
T2 sequence (P55212 whole entry): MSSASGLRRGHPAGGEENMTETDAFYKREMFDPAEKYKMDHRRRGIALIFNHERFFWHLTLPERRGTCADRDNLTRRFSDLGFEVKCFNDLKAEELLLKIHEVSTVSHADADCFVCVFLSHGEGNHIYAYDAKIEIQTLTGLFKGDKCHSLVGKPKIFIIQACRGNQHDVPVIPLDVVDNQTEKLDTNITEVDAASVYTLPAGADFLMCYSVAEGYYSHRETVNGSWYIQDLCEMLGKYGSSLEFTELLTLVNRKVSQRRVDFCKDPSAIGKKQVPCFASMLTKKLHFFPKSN

[3] = toxicity to human HepG2 hepatoma cells – cell-based, plate reader, dry powder samples, cytotoxicity control, dose response (AID 1159569); format: functional;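 also: inhibitor potency with signal falling toward the positive control level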
[4] = growth inhibition of PfATP4-mutant resistant parasites – NITD609-resistant line, SYBR Green, dry powder, dose response (AID 1159571); format: functional, cell-based;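 also: parasites synchronized at ring stage by sorbitol before testing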
[5] = P. falciparum Dd2 growth inhibitors, dose response, SYBR Green, cherry-picked samples (AID 1159567); format: functional, cell-based
[6] = growth inhibition of yeast DHODH-expressing 3D7 parasites – SYBR Green, dry powder samples, dose response (AID 1159570); format: functional, cell-based;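 also: parasite growth measured after 72 hours of compound exposure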
[7] = Dd2 malaria parasite growth inhibition potency – SYBR Green, dry powder samples, dose response (AID 1159566); format: functional, cell-based;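 also: potency for growth inhibition with lower SYBR green DNA signal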
[8] = toxicity to human hepatoma HepG2 cells – cell-based, cherry-picked samples, cytotoxicity control, dose response (AID 1159577); format: functional
Streptokinase A = molecular target: T3, Streptokinase A (Streptococcus pyogenes serotype M1, UniProt P10520); assay: viability-normalized secreted streptokinase activity reduction – plasminogen activation absorbance, OD405, dose response (AID 1914); format: functional, Streptococcus pyogenes M1 GAS;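 also: secreted streptokinase activity via plasminogen activation per viability signal from cell pellet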
T3 sequence (P10520 whole entry): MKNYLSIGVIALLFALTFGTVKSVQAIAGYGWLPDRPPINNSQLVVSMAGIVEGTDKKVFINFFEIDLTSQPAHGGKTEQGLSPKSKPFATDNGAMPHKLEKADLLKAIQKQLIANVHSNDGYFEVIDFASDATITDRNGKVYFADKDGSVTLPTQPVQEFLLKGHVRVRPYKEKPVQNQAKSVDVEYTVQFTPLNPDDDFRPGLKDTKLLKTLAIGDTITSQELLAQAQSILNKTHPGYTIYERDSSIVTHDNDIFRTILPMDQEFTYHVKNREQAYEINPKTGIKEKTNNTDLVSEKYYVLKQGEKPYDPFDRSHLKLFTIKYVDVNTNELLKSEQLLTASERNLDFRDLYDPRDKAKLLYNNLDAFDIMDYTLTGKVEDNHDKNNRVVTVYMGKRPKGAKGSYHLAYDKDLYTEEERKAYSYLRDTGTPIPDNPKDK

[9] = molecular target: T4, Zinc finger protein mex-5 (Caenorhabditis elegans, UniProt Q9XUB2); assay: potency of MEX-5 RNA-binding blockers – biochemical, C. elegans, fluorescence polarization, dose response (AID 1960)
T4 sequence (Q9XUB2 whole entry): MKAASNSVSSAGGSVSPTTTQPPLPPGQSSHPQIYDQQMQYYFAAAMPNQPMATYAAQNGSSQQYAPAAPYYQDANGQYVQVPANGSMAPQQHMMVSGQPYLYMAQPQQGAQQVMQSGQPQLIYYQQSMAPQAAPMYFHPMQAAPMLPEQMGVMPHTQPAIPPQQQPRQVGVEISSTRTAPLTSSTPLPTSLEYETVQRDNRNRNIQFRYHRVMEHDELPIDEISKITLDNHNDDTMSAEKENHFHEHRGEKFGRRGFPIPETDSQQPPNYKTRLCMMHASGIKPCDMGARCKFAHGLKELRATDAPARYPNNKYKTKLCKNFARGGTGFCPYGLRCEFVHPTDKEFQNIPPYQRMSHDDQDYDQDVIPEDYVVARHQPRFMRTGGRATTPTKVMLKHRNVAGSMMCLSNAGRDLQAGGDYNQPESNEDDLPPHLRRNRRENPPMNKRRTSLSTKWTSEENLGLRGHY

Streptococcus = assay: GAS UMAA2166 growth inhibition – luminescence, BacTiterGlo, counter-screen for streptokinase expression inhibitor project, dose response (AID 1915); format: functional, organism-based; conditions: Streptococcus;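 also: potency for reduction of bacterial viability or growth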
Nonstructural protein 1 = Nonstructural protein 1 (Influenza A virus, UniProt Q194T2); format: functional, Influenza A virus (A/California/07/2009(H1N1))
fMet-Leu-Phe receptor = molecular target: T5, fMet-Leu-Phe receptor (Homo sapiens, UniProt P21462); assay: formyl peptide receptor binders – dose response (AID 519); format: functional
T5 sequence (P21462 whole entry): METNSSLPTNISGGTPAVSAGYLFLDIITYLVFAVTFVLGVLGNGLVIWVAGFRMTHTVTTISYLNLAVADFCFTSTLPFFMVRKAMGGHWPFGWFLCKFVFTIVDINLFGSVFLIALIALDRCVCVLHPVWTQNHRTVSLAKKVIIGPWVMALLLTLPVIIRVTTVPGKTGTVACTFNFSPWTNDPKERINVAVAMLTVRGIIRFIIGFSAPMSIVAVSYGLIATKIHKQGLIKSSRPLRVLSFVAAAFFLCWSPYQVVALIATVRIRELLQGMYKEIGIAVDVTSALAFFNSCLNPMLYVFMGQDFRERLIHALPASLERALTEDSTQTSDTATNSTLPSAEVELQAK

[10] = molecular target: T6, RNA-binding protein pos-1 (Caenorhabditis elegans, UniProt G5EF15); assay: disruptors of C. elegans POS-1 RNA interaction – biochemical, fluorescence polarization, dose response (AID 1964);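 also: purified POS-1 fused to maltose binding protein made in E. coli; potency of compounds blocking POS-1 binding to fluorescent RNA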
T6 sequence (G5EF15 whole entry): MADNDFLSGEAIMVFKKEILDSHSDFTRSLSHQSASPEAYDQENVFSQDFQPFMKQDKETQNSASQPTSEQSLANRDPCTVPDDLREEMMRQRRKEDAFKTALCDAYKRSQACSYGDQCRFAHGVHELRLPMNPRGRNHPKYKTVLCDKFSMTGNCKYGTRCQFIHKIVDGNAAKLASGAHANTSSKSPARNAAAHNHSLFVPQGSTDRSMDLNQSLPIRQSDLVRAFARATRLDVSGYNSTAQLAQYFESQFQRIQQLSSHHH

[11] = test system: Streptococcus sp. 'group A'; assay: Streptococcus pyogenes SK(-)GAS viability under kanamycin – luminescence, BacTiterGlo, confirmation, counter-screen for streptokinase expression inhibitor project, dose response (AID 1900); format: functional, organism-based; conditions: Streptococcus sp. 'group A'
[12] = Luminescence Cell-Based Dose Confirmation to Identify Activators of 5'UTR Stem-Loop Driven Alpha-Synuclein mRNA Translation in H4 Neuroglioblastoma Cells. [Related pubchem assays: 1829 (Project Summary), 1814 (Primary HTS)]; format: functional
[13] = Luminescence Cell-Based Dose Response to Identify Activators of Luciferase Translation or Activity in H4-C Neuroglioblastoma Cells. [Related pubchem assays: 1829 (Project Summary), 1814 (Primary HTS)]; format: functional
H4 = assay: Luminescence Cell-Based Dose Response HTS to Identify Activators of 5'UTR Stem-Loop Driven Prion Protein mRNA Translation in H4 Neuroglioblastoma Cells. [Related pubchem assays: 1829 (Project Summary), 1814 (Primary HTS)]; format: functional; conditions: Homo sapiens
[14] = Luminescence Cell-Based Dose Response HTS to Identify Activators of Luciferase Translation or Activity in H4 […] Cells. [Related pubchem assays: 1829 (Project Summary), 1814 (Primary HTS)]; format: functional
[15] = Luminescence Cell-Based Dose Response to Identify Activators of 5'UTR Stem-Loop Driven Prion Protein mRNA Translation in H4-C Neuroglioblastoma Cells. [Related pubchem assays: 1829 (Project Summary), 1814 (Primary HTS)]; format: functional
INS1 = assay: INS-1E survival protection against cytokine death – cell-based, luminescence, retest, dose response (AID 449756); format: functional; conditions: Rattus norvegicus;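 also: cell death triggered by IL-1 beta plus TNF-alpha plus IFN-gamma mixture; protective hits raise ATP signal compared with cytokine alone wells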
[16] = molecular target: T7, Calpain-2 catalytic subunit (Sus scrofa, UniProt P43367); assay: m-calpain protease blockers, concentration series – biochemical, fluorogenic peptide substrate, dose response (AID 1420); format: functional
T7 sequence (P43367 whole entry): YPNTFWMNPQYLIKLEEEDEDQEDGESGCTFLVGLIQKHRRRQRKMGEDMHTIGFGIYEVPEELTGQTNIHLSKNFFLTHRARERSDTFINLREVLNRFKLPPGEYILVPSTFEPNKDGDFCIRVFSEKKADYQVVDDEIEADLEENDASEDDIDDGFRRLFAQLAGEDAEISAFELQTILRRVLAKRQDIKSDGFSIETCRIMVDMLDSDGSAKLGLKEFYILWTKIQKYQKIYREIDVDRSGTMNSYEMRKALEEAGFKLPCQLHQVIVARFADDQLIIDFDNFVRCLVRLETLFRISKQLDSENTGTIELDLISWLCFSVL

[17] = Luminescence Cell-Based Dose Confirmation HTS to Identify Activators of 5'UTR Stem-Loop Driven Alpha-Synuclein mRNA Translation in H4 Neuroglioblastoma Cells. [Related pubchem assays: 1829 (Project Summary), 1814 (Primary HTS)]; format: functional
H9c2 = assay: cells; format: functional, cell-based; conditions: Rattus norvegicus, H9c2, Myocardium
Estrogen receptor beta = Estrogen receptor beta (Homo sapiens, UniProt Q92731);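 also: recombinant ER-beta bound to coactivator SRC1 peptide in presence of estradiol agonist; inhibitors block coactivator peptide binding and lower the FRET signal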
[18] = NIH3T3 cell viability loss – ATP luminescence, mouse fibroblasts, counter-screen, dose response (AID 2010); format: functional, cell-based;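 also: cells exposed to compound for about 90 hours before reading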
[19] = viability loss in THP-1 monocytes – THP-1 cells, cytotoxicity control for Vif-APOBEC3G degradation inhibitor project, dose response (AID 1117359); format: functional; conditions: THP-1
[20] = molecular target: Heat shock protein HSP 90-alpha (Homo sapiens, UniProt P07900); format: functional, organism-based
[21] = Trypanosoma cruzi growth suppression in host cells – NIH3T3 host cells, beta-gal luminescence, confirmation (AID 2044); format: functional, cell-based;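 also: intracellular parasites grown in NIH/3T3 mouse fibroblasts as host cells; luminescent beta-galactosidase reporter signal from transgenic T. cruzi replicating inside host cells; inhibitors lower the luminescence signal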

Sequence of Estrogen receptor beta (Q92731 whole entry): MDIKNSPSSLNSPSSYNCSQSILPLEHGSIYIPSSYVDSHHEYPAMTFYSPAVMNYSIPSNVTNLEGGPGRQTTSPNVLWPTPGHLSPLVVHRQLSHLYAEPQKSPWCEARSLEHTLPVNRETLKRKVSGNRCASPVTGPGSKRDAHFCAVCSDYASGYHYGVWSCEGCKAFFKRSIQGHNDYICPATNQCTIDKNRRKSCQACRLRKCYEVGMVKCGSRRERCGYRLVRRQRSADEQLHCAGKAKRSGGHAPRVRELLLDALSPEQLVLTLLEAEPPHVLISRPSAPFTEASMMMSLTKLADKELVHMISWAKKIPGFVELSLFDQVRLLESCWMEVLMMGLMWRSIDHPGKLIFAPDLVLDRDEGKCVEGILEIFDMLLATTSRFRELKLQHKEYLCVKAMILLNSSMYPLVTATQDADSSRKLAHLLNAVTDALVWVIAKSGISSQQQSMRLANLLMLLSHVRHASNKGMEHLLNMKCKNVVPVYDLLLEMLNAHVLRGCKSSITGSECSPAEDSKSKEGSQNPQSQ
Sequence of Nonstructural protein 1 (Q194T2 whole entry): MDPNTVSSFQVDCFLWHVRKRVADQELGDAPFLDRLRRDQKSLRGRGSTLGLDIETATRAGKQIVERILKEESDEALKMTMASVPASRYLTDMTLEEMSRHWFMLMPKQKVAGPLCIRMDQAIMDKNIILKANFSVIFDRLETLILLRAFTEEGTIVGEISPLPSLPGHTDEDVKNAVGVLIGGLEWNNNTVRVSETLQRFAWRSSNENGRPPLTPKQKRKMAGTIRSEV

## COc1cc(NC(C)=O)c2ncccc2c1[N+](=O)[O-]
[1]
  IC50: > 50 µM (not active)
[2]
  IC50: > 50 µM (not active)

## CCOC(=O)N1CCN(C(C(=O)NC2CCCC2)C(C)C)CC1 (stereo not drawn)
Caspase-6
  AC50: 12.2 µM (active)

## C[C@H]1CN([C@@H](C)CO)C(=O)c2c(c3ccccc3n2C)-c2ccccc2CO[C@@H]1CN(C)Cc1ccc(Cl)c(Cl)c1
[3]
  AC50: 18.4 µM (active)
[4]
  AC50: 1.87 µM (active)
[5]
  AC50: 1.94 µM (active)
[6]
  AC50: 3.11 µM (active)
[7]
  AC50: 1.43 µM (active)

## COc1ccc(CN2C[C@H](C)[C@@H](OC)CN(C)C(=O)c3ccc(NC(=O)c4nc5ccccc5s4)cc3OC[C@@H]2C)cc1
[3]
  AC50: 67.3 µM (active)
[4]
  AC50: 3.82 µM (active)
[5]
  AC50: 2.9 µM (active)
[6]
  AC50: 5.03 µM (active)
[7]
  AC50: 2.64 µM (active)

## c1ccc(CN2C[C@@H]3N[C@H](C2)[C@@H]3c2ccc(-c3ccncc3)cc2)cc1
[3]
  AC50: 18 µM (active)
[8]
  AC50: > 39 µM (inactive)
[4]
  AC50: 1.66 µM (active)
[5]
  AC50: 2.35 µM (active)
[6]
  AC50: 3.96 µM (active)
[7]
  AC50: 1.54 µM (active)

## CCN(CC)c1ccc(/C=N/C(C#N)=C(\N)C#N)cc1
Streptokinase A
  EC50: > 150 µM (not active)
[9]
  EC50: 114 µM (inconclusive)
Streptococcus
  EC50: > 150 µM (not active)
Nonstructural protein 1
  IC50: > 100 µM (active)
fMet-Leu-Phe receptor
  Ki: > 66.7 µM (inactive)
[10]
  EC50: 281 µM (active)
[11]
  EC50: > 150 µM (not active)

## Nc1c(-c2cccc(Cl)c2)cnc2c(-c3ccccc3)cnn12
[12]
  EC50: 0.321 µM (active)
[13]
  EC50: 1.15 µM (active)
H4
  EC50: 0.785 µM (active)
[14]
  EC50: < 0.1 µM (inconclusive)
[15]
  EC50: 0.478 µM (active)

## Cc1ccc(NC2=C/C(=N/S(=O)(=O)c3cccs3)c3ccccc3C2=O)cc1C
[12]
  EC50: 0.318 µM (active)
[13]
  EC50: 0.43 µM (active)
INS1
  AC50: 1.56 µM (active)
[16]
  IC50: 22.3 µM (not active)
H4
  EC50: < 0.1 µM (active)
[14]
  EC50: < 0.1 µM (active)
[15]
  EC50: 0.348 µM (active)
[17]
  EC50: 0.181 µM (active)

## CCOC(=O)C1=C(COC(=O)c2ccc([N+](=O)[O-])o2)NC(=O)NC1C (stereo not drawn)
Caspase-6
  AC50: 30 µM (active)
H9c2
  IC50: > 79 µM (inactive)

## CSc1nc(O)c2c(n1)N=C1CCCC(O)=C1C2c1cccs1 (stereo not drawn)
Estrogen receptor beta
  IC50: 11.4 µM (active)

## O=[N+]([O-])c1cc(CN2CCN(c3cccc(C(F)(F)F)c3)CC2)c2cccnc2c1O
[18]
  EC50: 4.99 µM (active)
[19]
  CC50: 2.18 µM (active)
Caspase-6
  AC50: 33.8 µM (active)
[20]
  AC50: 3.53 µM (active)
[21]
  EC50: 0.493 µM (active)

## O=C(O)CC(Cn1nnnc1S)c1ccccc1 (stereo not drawn)
Estrogen receptor beta
  IC50: > 50 µM (not active)
